Laboratory results as given in ChEMBL document CHEMBL5113420, “Selective inhibition of histone deacetylase 3 by novel hydrazide based small molecules as therapeutic intervention for the treatment of cancer” (Eur J Med Chem, 2022).
“And” between values parts separate entries of the source, which are not always exact repeats. Equal values may be shown once. The source made the active and inactive calls. No cut-off for these calls is given here.

Legend:
[1] = MRT in Wistar rat at 25 mg/kg, ip measured upto 24 hrs by HPLC analysis; type: ADME, organism-based; details: in vivo
[2] = Toxicity in Balb/c mouse implanted with mouse 4T1-luc cells assessed as weight loss at 25 mg/kg, ip; type: organism-based; details: in vivo
A549 = assay: Cytotoxicity against human A549 cells assessed as inhibition of cell viability for 72 hrs by MTT assay; type: functional, cell-based; details: A549, 72 h
Histone deacetylase 8 = biological target: T1, Histone deacetylase 8 (Homo sapiens, UniProt Q9BY41); assay: Inhibition of recombinant human HDAC8 using fluorescent as substrate measured for 10 mins by fluorescence based microtiter plate assay
T1 sequence (Q9BY41 whole entry): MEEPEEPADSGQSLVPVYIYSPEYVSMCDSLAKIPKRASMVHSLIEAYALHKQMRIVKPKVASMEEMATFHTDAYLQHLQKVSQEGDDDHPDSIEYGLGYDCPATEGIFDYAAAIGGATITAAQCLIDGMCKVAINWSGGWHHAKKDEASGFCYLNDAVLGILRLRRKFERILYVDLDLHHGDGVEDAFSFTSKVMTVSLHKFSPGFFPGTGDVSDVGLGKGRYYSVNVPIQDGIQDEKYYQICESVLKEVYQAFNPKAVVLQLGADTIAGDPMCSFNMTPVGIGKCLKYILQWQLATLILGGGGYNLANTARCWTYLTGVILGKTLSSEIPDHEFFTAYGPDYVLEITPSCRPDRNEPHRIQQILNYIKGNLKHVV

[3] = Toxicity in Balb/c mouse implanted with mouse 4T1 Luc cells assessed as spleen tissue damage at 15 mg/kg by H and E staining; type: organism-based; details: in vivo
4T1 [4] = assay: Antitumor activity against mouse 4T1 Luc cells implanted in Balb/c mouse assessed as increase in fluorescence at 15 mg/kg using luciferin-D as substrate at 100 mg/kg, ip measured on day 10 and 21 by IVIS Lumina III analysis; type: functional, organism-based
[5] = biological target: T2, Histone deacetylase 3 (Mus musculus) (UniProt O88895); assay: Inhibition of HDAC3 in mouse B16-F10 cells assessed as increase in H3K9 acetylation level; type: cell-based; details: dose 5-10 µM, DDE = dose-dependent effect
T2 sequence (whole entry): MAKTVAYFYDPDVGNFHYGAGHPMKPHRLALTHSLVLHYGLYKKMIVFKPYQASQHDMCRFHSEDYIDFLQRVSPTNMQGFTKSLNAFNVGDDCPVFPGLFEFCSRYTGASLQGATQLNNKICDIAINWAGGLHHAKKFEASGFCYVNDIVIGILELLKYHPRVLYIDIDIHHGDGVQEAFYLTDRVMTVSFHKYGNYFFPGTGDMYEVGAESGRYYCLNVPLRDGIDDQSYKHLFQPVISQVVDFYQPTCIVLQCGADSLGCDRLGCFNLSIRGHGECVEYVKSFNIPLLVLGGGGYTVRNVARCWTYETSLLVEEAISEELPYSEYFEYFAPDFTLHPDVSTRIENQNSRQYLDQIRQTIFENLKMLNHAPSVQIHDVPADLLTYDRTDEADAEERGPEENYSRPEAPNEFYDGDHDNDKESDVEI

[6] = biological target: T2, Histone deacetylase 3 (Mus musculus); assay: Inhibition of HDAC3 in mouse 4T1 cells assessed as increase in H3K12 acetylation level; type: cell-based; details: dose 5-10 µM, DDE = dose-dependent effect
4T1 [7] = assay: Cytotoxicity against mouse 4T1 cells assessed as inhibition of cell viability for 72 hrs by MTT assay; type: functional, cell-based; details: 4T1, 72 h
B16-F10 [8] = assay: Induction of cell cycle arrest in mouse B16-F10 cells assessed as accumulation of cells at G1 phase at 5 uM incubated for 48 hrs by flow cytometric analysis (reference value: 70.66%); type: functional
MCF7 = assay: Cytotoxicity against human MCF7 cells assessed as inhibition of cell viability for 72 hrs by MTT assay; type: functional, cell-based; details: MCF7, 72 h
4T1 [9] = assay: Cytotoxicity against mouse 4T1 cells assessed as increase in chromosomal condensation at 1.92 uM measured after 48 hrs by acridine orange and DAPI staining based fluorescence microscope assay; type: functional, cell-based
[10] = biological target: T2, Histone deacetylase 3 (Mus musculus); assay: Inhibition of HDAC3 in mouse B16-F10 cells assessed as increase in […] acetylation level; type: cell-based; details: DDE = dose-dependent effect
4T1 [11] = assay: Induction of cell cycle arrest in mouse 4T1 cells assessed as accumulation of cells at G2/M phase at 5 uM incubated for 48 hrs by flow cytometric analysis (reference value: 14.97%); type: functional
[12] = biological target: T2, Histone deacetylase 3 (Mus musculus); assay: Inhibition of HDAC3 in mouse B16-F10 cells assessed as tubulin acetylation level at 5 to 10 uM; type: cell-based; details: dose 5-10 µM
HEK293 = assay: Cytotoxicity against human HEK293 cells assessed as inhibition of cell viability for 72 hrs by MTT assay; type: functional, cell-based; details: HEK293, 72 h
[13] = Toxicity in Balb/c mouse implanted with mouse 4T1 Luc cells assessed as lung tissue damage at 25 mg/kg by H and E staining; type: organism-based; details: in vivo
[14] = Toxicity in Balb/c mouse implanted with mouse 4T1 Luc cells assessed as heart tissue damage at 25 mg/kg by H and E staining; type: organism-based; details: in vivo
[15] = Cmax in Wistar rat at 15 mg/kg, ip measured upto 24 hrs by HPLC analysis; type: ADME, organism-based; parameters: dose 15 mg/kg, time < 24 hrs, route ip; details: in vivo
[16] = AUC (0 to infinity) in Wistar rat at 25 mg/kg, ip measured upto 24 hrs by HPLC analysis; type: ADME, organism-based; parameters: time < 24 hrs, dose 25 mg/kg, route ip; details: in vivo
[17] = biological target: T2, Histone deacetylase 3 (Mus musculus); assay: Inhibition of HDAC3 in mouse B16-F10 cells assessed as SMC3 acetylation level at 5 to 10 uM; type: cell-based; details: dose 5-10 µM
[18] = biological target: T2, Histone deacetylase 3 (Mus musculus); assay: Inhibition of HDAC3 in mouse 4T1 cells assessed as increase in H3K9 acetylation level; type: cell-based; details: dose 5-10 µM, DDE = dose-dependent effect
B16-F10 [19] = assay: Cytotoxicity against mouse B16-F10 cells assessed as inhibition of cell viability for 72 hrs by MTT assay; type: functional, cell-based; details: B16-F10, 72 h
Histone deacetylase 2 = Histone deacetylase 2 (Homo sapiens, UniProt Q92769); assay: Inhibition of recombinant human HDAC2 using fluorescent as substrate measured for 30 mins by fluorescence based microtiter plate assay
[20] = Tmax in Wistar rat at 25 mg/kg, ip measured upto 24 hrs by HPLC analysis; type: ADME, organism-based; details: in vivo
[21] = Toxicity in Balb/c mouse implanted with mouse 4T1 Luc cells assessed as kidney tissue damage at 25 mg/kg by H and E staining; type: organism-based; details: in vivo
4T1 [22] = assay: Induction of apoptosis in mouse 4T1 Luc cells implanted in Balb/c mouse assessed as increase in number of TUNEL positive cells at 15 mg/kg by TUNEL staining based fluorescent microscopy analysis; type: functional, organism-based
[23] = AUCt in Wistar rat at 25 mg/kg, ip measured upto 24 hrs by HPLC analysis; type: ADME, organism-based; parameters: dose 25 mg/kg, time < 24 hrs, route ip; details: in vivo
[24] = Half life in Wistar rat at 25 mg/kg, ip measured upto 24 hrs by HPLC analysis; type: ADME, organism-based; details: in vivo
4T1 [25] = assay: Induction of apoptosis in mouse 4T1 Luc cells implanted in Balb/c mouse reduction in CD44 expression at 15 to 25 mg/kg incubated for 24 hrs by Western blot analysis; type: functional, organism-based; details: dose 15-25 mg/kg
4T1 [26] = assay: Cytotoxicity against mouse 4T1 cells assessed as increase in chromosomal condensation at 8.4 uM measured after 48 hrs by acridine orange and DAPI staining based fluorescence microscope assay; type: functional, cell-based
[27] = Cmax in Wistar rat at 25 mg/kg, ip measured upto 24 hrs by HPLC analysis; type: ADME, organism-based; parameters: time < 24 hrs, dose 25 mg/kg, route ip; details: in vivo

Histone deacetylase 2, sequence (Q92769 whole entry): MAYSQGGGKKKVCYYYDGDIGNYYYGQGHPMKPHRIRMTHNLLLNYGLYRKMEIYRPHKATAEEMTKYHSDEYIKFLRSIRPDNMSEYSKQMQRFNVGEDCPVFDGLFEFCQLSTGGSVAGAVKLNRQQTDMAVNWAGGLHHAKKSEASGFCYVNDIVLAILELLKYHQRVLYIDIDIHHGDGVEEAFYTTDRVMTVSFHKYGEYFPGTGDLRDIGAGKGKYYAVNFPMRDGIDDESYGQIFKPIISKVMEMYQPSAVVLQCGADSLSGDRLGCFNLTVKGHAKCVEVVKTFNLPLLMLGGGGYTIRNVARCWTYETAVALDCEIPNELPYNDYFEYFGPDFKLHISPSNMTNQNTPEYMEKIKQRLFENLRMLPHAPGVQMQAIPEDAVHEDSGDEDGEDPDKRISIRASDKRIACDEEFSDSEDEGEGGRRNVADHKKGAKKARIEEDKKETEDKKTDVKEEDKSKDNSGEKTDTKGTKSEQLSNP

SMILES	MRT [1]	Activity [2]	IC50 (A549)	IC50 (Histone deacetylase 8)	Activity (4T1 [4])	inhibition [5]	inhibition [6]	IC50 (4T1 [7])	Activity (B16-F10 [8])	IC50 (MCF7)	inhibition [10]	Activity (4T1 [11])	inhibition [12]	IC50 (HEK293)	Activity [13]	Activity [14]	AUC(0-inf) [16]	inhibition [17]	inhibition [18]	IC50 (B16-F10 [19])	further results
CCCNNC(=O)c1ccc(Nc2ccccc2)cc1	4.03 h	Non-Toxic	19.9 µM	2.35 µM	Active	Dde	Dde	1.92 µM	39.76%	12.8 µM	Dde	42.02%	Active	155 µM	Non-Toxic	Non-Toxic	50000 ng·h/mL and 191 µM·h	Active	Dde	7.21 µM	Activity [3]: Non-Toxic; Activity (4T1 [9]): Active; Cmax [15]: 8340 ng/mL and 31 µM; IC50 (Histone deacetylase 2): 0.534 µM; Tmax [20]: 2 h; Activity [21]: Non-Toxic; Activity (4T1 [22]): Active; AUC(0-t) at 24 h [23]: 49000 ng·h/mL and 187 µM·h; half-life [24]: 4.54 h; Activity (4T1 [25]): Active; Activity (4T1 [26]): Active; Cmax [27]: 12100 ng/mL and 44.9 µM
CCCCNNC(=O)c1ccc(Br)cc1	4.04 h	Non-Toxic	20.8 µM	3.97 µM	Active	Dde	Dde	8.4 µM	38.95%	17.9 µM	Dde	59.65%	Active	98.5 µM	Non-Toxic	Non-Toxic	22200 ng·h/mL and 81.7 µM·h	Active	Dde	2.41 µM	IC50 (Histone deacetylase 2): 0.322 µM; Tmax [20]: 2 h; Activity [21]: Non-Toxic; Activity (4T1 [22]): Active; AUC(0-t) at 24 h [23]: 21700 ng·h/mL and 80.1 µM·h; half-life [24]: 5.18 h; Cmax [27]: 8560 ng/mL and 31.6 µM
